# Assay results published in ChEMBL document CHEMBL3885881, “DrugMatrix”.
# Species: Rattus norvegicus
# Assay: DrugMatrix - Regimen: Daily Repeat
# Type: toxicity, organism-based, Sprague-Dawley
# Design: regimen Daily Repeat, gender Male, age 6-8 weeks
# Conditions: in vivo, po, route oral GAVAGE, vehicle .5 % CMC; for BASOPHIL / EOSINOPHIL / ERYTHROCYTE COUNT / HEMATOCRIT / HEMOGLOBIN / LEUKOCYTE COUNT / LYMPHOCYTE / MEAN CORPUSCULAR HEMOGLOBIN / MEAN CORPUSCULAR HEMOGLOBIN CONCENTRATION / MEAN CORPUSCULAR VOLUME / MONOCYTE / NEUTROPHIL / PLATELET COUNT: tissue Blood; for ALANINE AMINOTRANSFERASE / ALBUMIN / ALKALINE PHOSPHATASE / ASPARTATE AMINOTRANSFERASE / BLOOD UREA NITROGEN / CHLORIDE / CHOLESTEROL / CREATINE PHOSPHOKINASE / CREATININE / GLUCOSE / PHOSPHORUS / POTASSIUM / SODIUM / TOTAL BILIRUBIN / TOTAL PROTEIN: tissue Plasma
# [1] = 0 mg/kg, 72 h, dose level Control, time 3 day
# [2] = 0 mg/kg, 120 h, dose level Control, time 5 day
# [3] = 36 mg/kg, 72 h, dose level Low, time 3 day
# [4] = 36 mg/kg, 120 h, dose level Low, time 5 day
smiles,measurement,setting,value
CCCCc1oc2ccccc2c1C(=O)c1cc(I)c(OCCN(CC)CC)c(I)c1 [AMIODARONE],BASOPHIL,[1],0%
same,EOSINOPHIL,[1],0%
same,ERYTHROCYTE COUNT,[1],6.19 x10E6/uL
same,HEMATOCRIT,[1],36.94%
same,HEMOGLOBIN,[1],14.58 G/DL
same,LEUKOCYTE COUNT,[1],11.54 x10E3/uL
same,LYMPHOCYTE,[1],84.8%
same,MEAN CORPUSCULAR HEMOGLOBIN,[1],23.58 pg
same,MEAN CORPUSCULAR HEMOGLOBIN CONCENTRATION,[1],39.44 G/DL
same,MEAN CORPUSCULAR VOLUME,[1],59.76 fL
same,MONOCYTE,[1],1.4%
same,NEUTROPHIL,[1],13.8%
same,PLATELET COUNT,[1],1068.8 x10E3/uL
same,ALANINE AMINOTRANSFERASE,[1],38.17 u/L
same,ALBUMIN,[1],3.88 G/DL
same,ALKALINE PHOSPHATASE,[1],391.33 u/L
same,ASPARTATE AMINOTRANSFERASE,[1],69.83 u/L
same,BLOOD UREA NITROGEN,[1],15 mg/dL
same,CHLORIDE,[1],104.17 MEQ/L
same,CHOLESTEROL,[1],72.17 mg/dL
same,CREATINE PHOSPHOKINASE,[1],174.33 u/L
same,CREATININE,[1],0.58 mg/dL
same,GLUCOSE,[1],192.67 mg/dL
same,PHOSPHORUS,[1],10.52 mg/dL
same,POTASSIUM,[1],6.8 MEQ/L
same,SODIUM,[1],149.67 MEQ/L
same,TOTAL BILIRUBIN,[1],0.78 mg/dL
same,TOTAL PROTEIN,[1],6.28 G/DL
same,BASOPHIL,[2],0%
same,EOSINOPHIL,[2],0.17%
same,ERYTHROCYTE COUNT,[2],6.72 x10E6/uL
same,HEMATOCRIT,[2],40.02%
same,HEMOGLOBIN,[2],15.83 G/DL
same,LEUKOCYTE COUNT,[2],9.5 x10E3/uL
same,LYMPHOCYTE,[2],87.17%
same,MEAN CORPUSCULAR HEMOGLOBIN,[2],23.57 pg
same,MEAN CORPUSCULAR HEMOGLOBIN CONCENTRATION,[2],39.62 G/DL
same,MEAN CORPUSCULAR VOLUME,[2],59.55 fL
same,MONOCYTE,[2],1.67%
same,NEUTROPHIL,[2],11%
same,PLATELET COUNT,[2],1053.67 x10E3/uL
same,ALANINE AMINOTRANSFERASE,[2],26.33 u/L
same,ALBUMIN,[2],4.02 G/DL
same,ALKALINE PHOSPHATASE,[2],316.67 u/L
same,ASPARTATE AMINOTRANSFERASE,[2],61.33 u/L
same,BLOOD UREA NITROGEN,[2],18.67 mg/dL
same,CHLORIDE,[2],108 MEQ/L
same,CHOLESTEROL,[2],65.17 mg/dL
same,CREATINE PHOSPHOKINASE,[2],161.17 u/L
same,CREATININE,[2],0.75 mg/dL
same,GLUCOSE,[2],177.33 mg/dL
same,PHOSPHORUS,[2],9.72 mg/dL
same,POTASSIUM,[2],6.18 MEQ/L
same,SODIUM,[2],150.5 MEQ/L
same,TOTAL BILIRUBIN,[2],0.68 mg/dL
same,TOTAL PROTEIN,[2],6.55 G/DL
same,BASOPHIL,[3],0%
same,EOSINOPHIL,[3],0%
same,ERYTHROCYTE COUNT,[3],6.18 x10E6/uL
same,HEMATOCRIT,[3],36.8%
same,HEMOGLOBIN,[3],14.4 G/DL
same,LEUKOCYTE COUNT,[3],12.87 x10E3/uL
same,LYMPHOCYTE,[3],77%
same,MEAN CORPUSCULAR HEMOGLOBIN,[3],23.4 pg
same,MEAN CORPUSCULAR HEMOGLOBIN CONCENTRATION,[3],39.13 G/DL
same,MEAN CORPUSCULAR VOLUME,[3],59.8 fL
same,MONOCYTE,[3],2.67%
same,NEUTROPHIL,[3],20.33%
same,PLATELET COUNT,[3],1095 x10E3/uL
same,ALANINE AMINOTRANSFERASE,[3],33 u/L
same,ALBUMIN,[3],3.77 G/DL
same,ALKALINE PHOSPHATASE,[3],365.33 u/L
same,ASPARTATE AMINOTRANSFERASE,[3],56.33 u/L
same,BLOOD UREA NITROGEN,[3],15 mg/dL
same,CHLORIDE,[3],103.67 MEQ/L
same,CHOLESTEROL,[3],84.33 mg/dL
same,CREATINE PHOSPHOKINASE,[3],134.67 u/L
same,CREATININE,[3],0.7 mg/dL
same,GLUCOSE,[3],159.33 mg/dL
same,PHOSPHORUS,[3],11.13 mg/dL
same,POTASSIUM,[3],6.63 MEQ/L
same,SODIUM,[3],148.67 MEQ/L
same,TOTAL BILIRUBIN,[3],0.7 mg/dL
same,TOTAL PROTEIN,[3],6.13 G/DL
same,BASOPHIL,[4],0%
same,EOSINOPHIL,[4],0.33%
same,ERYTHROCYTE COUNT,[4],6.73 x10E6/uL
same,HEMATOCRIT,[4],39.47%
same,HEMOGLOBIN,[4],15.6 G/DL
same,LEUKOCYTE COUNT,[4],11.67 x10E3/uL
same,LYMPHOCYTE,[4],86.33%
same,MEAN CORPUSCULAR HEMOGLOBIN,[4],23.27 pg
same,MEAN CORPUSCULAR HEMOGLOBIN CONCENTRATION,[4],39.63 G/DL
same,MEAN CORPUSCULAR VOLUME,[4],58.73 fL
same,MONOCYTE,[4],2%
same,NEUTROPHIL,[4],11.33%
same,PLATELET COUNT,[4],1213.67 x10E3/uL
same,ALANINE AMINOTRANSFERASE,[4],26 u/L
same,ALBUMIN,[4],3.93 G/DL
same,ALKALINE PHOSPHATASE,[4],392.33 u/L
same,ASPARTATE AMINOTRANSFERASE,[4],57.67 u/L
same,BLOOD UREA NITROGEN,[4],14.67 mg/dL
same,CHLORIDE,[4],106.67 MEQ/L
same,CHOLESTEROL,[4],88 mg/dL
same,CREATINE PHOSPHOKINASE,[4],148.33 u/L
same,CREATININE,[4],0.7 mg/dL
same,GLUCOSE,[4],154.67 mg/dL
same,PHOSPHORUS,[4],10.83 mg/dL
same,POTASSIUM,[4],6.67 MEQ/L
same,SODIUM,[4],150.33 MEQ/L
same,TOTAL BILIRUBIN,[4],0.93 mg/dL
same,TOTAL PROTEIN,[4],6.6 G/DL
